According to US11844794B2, “Pharmaceutical compositions” (ADEPTIO PHARMACEUTICALS LIMITED, priority 2017, dated 2023):
In brackets after ≈: the same amount, converted by molar mass.

What was measured:
[1] = plasma concentrations after oral dosing to human volunteers; type: in vivo
Method: (+)-α-Dihydrotetrabenazine in amounts was administered by oral dosing to five human volunteers. In four of the volunteers, blood sample were taken at 30, 60, 120 and 180 minutes after drug administration. Blood samples were not taken from the fifth volunteer. At 60 minutes after drug administration, PET scans were initiated and these were stopped at 120 minutes after drug administration. The experiment was carried out at dosages of 7.5 mg, 15 mg and 22.5 mg.

VMAT2 = biological target: T1, VMAT2 (Homo sapiens, UniProt Q05940); experiment: % VMAT2 blocking by PET scan in human volunteers; type: in vivo
T1 construct: from tissue; host or cells: living human volunteers (in vivo PET scan)
T1 sequence (Q05940 whole entry): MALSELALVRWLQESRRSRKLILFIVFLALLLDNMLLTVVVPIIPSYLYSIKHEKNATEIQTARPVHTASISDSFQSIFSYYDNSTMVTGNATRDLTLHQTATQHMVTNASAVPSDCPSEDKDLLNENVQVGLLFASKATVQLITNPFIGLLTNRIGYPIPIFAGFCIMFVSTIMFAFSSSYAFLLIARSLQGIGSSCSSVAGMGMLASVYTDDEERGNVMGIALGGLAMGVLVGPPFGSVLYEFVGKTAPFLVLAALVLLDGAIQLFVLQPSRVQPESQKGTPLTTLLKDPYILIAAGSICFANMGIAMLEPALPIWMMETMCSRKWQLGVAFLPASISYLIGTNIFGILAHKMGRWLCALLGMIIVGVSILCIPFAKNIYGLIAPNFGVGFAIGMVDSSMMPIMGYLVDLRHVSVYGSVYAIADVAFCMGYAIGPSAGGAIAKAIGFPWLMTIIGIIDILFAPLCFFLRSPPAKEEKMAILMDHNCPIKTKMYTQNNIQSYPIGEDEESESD
Description: Complete blocking of the VMAT2 proteins is considered undesirable as this can lead to unwanted side effects, such as Parkinsonism. […] The levels of VMAT2 blocking can be determined by competitive binding studies using Positron Emission Tomography (PET). By co-administering a radioactive ligand with the compound of interest at various concentrations, the proportion of binding sites occupied can be determined (see for example, Matthews et al., “Positron emission tomography molecular imaging for drug development”, Br. J. Clin. Pharmacol., 73:2, 175-186).
In four of the volunteers, blood sample were taken at 30, 60, 120 and 180 minutes after drug administration. Blood samples were not taken from the fifth volunteer. At 60 minutes after drug administration, PET scans were initiated and these were stopped at 120 minutes after drug administration.
The experiment was carried out at dosages of 7.5 mg, 15 mg and 22.5 mg.

[2] = pharmacokinetics after oral administration to male Beagle dogs; type: in vivo, Beagle dog
Method: Doses were administered orally, via gavage, at a dose volume of 2.00 mL/kg yielding the target dose level of 1.50 mg/kg. Following dosing, 10 mL of tap water was flushed down the gavage to ensure the entire dose was dispensed. Following dosing over four sessions each with one of the test materials, serial whole blood samples (circa. 1.3 mL) were collected from a jugular vein then placed into K2 EDTA treated tubes pre-dose and then 0.25, 0.50, 1, 2, 3, 4, 6, 12 and 24 hours post dose. Blood samples were placed immediately on a cool-block before being centrifuged within 15 minutes at 3,000×g, 10 minutes, 4° C. and resultant plasma drawn off. […] Doses were administered orally, via gavage, at a dose volume of 2.00 mL/kg yielding the target dose level of 1.50 mg/kg. Following dosing, 10 mL of tap water was flushed down the gavage to ensure the entire dose was dispensed. Following dosing over four sessions each with one of the test materials, serial whole blood samples (circa. 1.3 mL) were collected from a jugular vein then placed into K2 EDTA treated tubes pre-dose and then 0.25, 0.50, 1, 2, 3, 4, 6, 12 and 24 hours post dose. Blood samples were placed immediately on a cool-block before being centrifuged within 15 minutes at 3,000×g, 10 minutes, 4° C. and resultant plasma drawn off.

[3] = equilibrium aqueous solubility by HPLC; type: physicochemical; conditions: thermodynamic from solid; water, measured by HPLC; read-out: equilibrium solubility in water
Method: The aqueous solubilities of salts were measured by an equilibrium method in which an amount of the salt was weighed into a 2 ml vial equipped with a magnetic stirrer bar and water added. In cases where complete dissolution was observed, more material was added until the sample was exhausted. The slurry was then stirred for seven days before isolating the solids by centrifuge-filtration. The solids were analysed by XRPD and the filtrates were analysed by HPLC to determine the amount of (+)-alpha-dihydrotetrabenazine salt in solution. The solubilities were calculated against a calibration curve established for a (+)-alpha-dihydrotetrabenazine sample of known concentration.

[4] = male Beagle dogs, oral 1.50 mg/kg (freebase equivalent)

In the case of `COc1cc2c(cc1OC)[C@H]1C[C@@H](O)[C@H](CC(C)C)CN1CC2` [(+)-α-dihydrotetrabenazine, (2R,3R,11bR)-3-isobutyl-9,10-dimethoxy-1,3,4,6,7,11b-hexahydro-2H-pyrido[2,1,a]isoquinolin-2-01], the concentration at 1 h ([1]; human, plasma, subject 1 (112 kg), 7.5 mg oral) is reported as 0.00094 µg/mL, the concentration at 1 h ([1]; human, plasma, subject 1 (112 kg), 22.5 mg oral) is reported as 0.018 µg/mL and the concentration at 2 h ([1]; human, plasma, subject 2 (76 kg), 7.5 mg oral) is reported as 0.014 µg/mL. The concentration at 0.5 h ([1]; human, plasma, subject 3 (129 kg), 15 mg oral, 0.5 h) was 0.0012 µg/mL, the concentration at 2 h ([1]; human, plasma, subject 3 (129 kg), 15 mg oral) was 0.012 µg/mL and the “plasma concentration of (+)-α-dihydrotetrabenazine” value ([1]; subject 1 (112 kg), 7.5 mg oral, 0.5 h, BLQ = below level of quantitation) was “BLQ”. The “% VMAT2 blocking” value (VMAT2; heavier individuals, doses as low as 7.5 mg) was “at least 50%”, the “% VMAT2 blocking” value (VMAT2; subject 1 (112 kg), 7.5 mg oral, PET 60-120 minutes after administration) was 54% and the “% VMAT2 blocking” value (VMAT2; subject 1 (112 kg), 15 mg oral, PET 60-120 minutes after administration) was 73%. The “% VMAT2 blocking” value (VMAT2; subject 1 (112 kg), 22.5 mg oral, PET 60-120 minutes after administration) was 75%, the “% VMAT2 blocking” value (VMAT2; subject 2 (76 kg), 7.5 mg oral, PET 60-120 minutes after administration) was 73% and the “% VMAT2 blocking” value (VMAT2; subject 2 (76 kg), 15 mg oral, PET 60-120 minutes after administration) was 83%. The “% VMAT2 blocking” value (VMAT2; subject 2 (76 kg), 22.5 mg oral, PET 60-120 minutes after administration) was 82%, the “% VMAT2 blocking” value (VMAT2; subject 3 (129 kg), 7.5 mg oral, PET 60-120 minutes after administration) was 62% and the “% VMAT2 blocking” value (VMAT2; subject 3 (129 kg), 15 mg oral, PET 60-120 minutes after administration) was 69%. For the same compound, the “% VMAT2 blocking” value (VMAT2; subject 3 (129 kg), 22.5 mg oral, PET 60-120 minutes after administration) was 74%, the “% VMAT2 blocking” value (VMAT2; subject 4 (59 kg), 7.5 mg oral, PET 60-120 minutes after administration) was 84% and the “% VMAT2 blocking” value (VMAT2; subject 4 (59 kg), 15 mg oral, PET 60-120 minutes after administration) was 89%. For the same compound, the “% VMAT2 blocking” value (VMAT2; subject 5 (91 kg), 7.5 mg oral, PET 60-120 minutes after administration) was 73%, the “% VMAT2 blocking” value (VMAT2; subject 5 (91 kg), 15 mg oral, PET 60-120 minutes after administration) was 79% and the “% VMAT2 blocking” value (VMAT2; subject 5 (91 kg), 22.5 mg oral, PET 60-120 minutes after administration) was 82%. For the same compound, the Cmax ([2]; dog, plasma, 1.5 mg/kg, male Beagle dogs, oral 1.50 mg/kg (freebase equivalent)) was 0.0587 µg/mL, the mean exposure [2, 4] was 64.26 ng·mL·h and the “time post dose at which Cmax was observed” value [2, 4] was 0.25 h. It also gave a concentration at 6 h ([2]; male, Beagle (HsdRcc:DOBE), dog, plasma, po, 1.5 mg/kg, Plasma concentration of (+)-α-dihydrotetrabenazine, Male 2, oral 1.50 mg/kg (freebase equivalent), 6 h, BLQ = <0.10 ng/mL) of 0.000113 µg/mL and a solubility thermodynamic at 7 days [3] of 0.127 mg/mL (≈ 398 µM).
